In data set [1] the target is T1, pre-formed fibrils (PFFs) of human wild-type Tau K18 fragment (Homo sapiens, UniProt P10636).
T1 construct: human recombinant Tau K18 WT fragment were generated by incubating the Tau K18 monomer (Bio-Techne®); purchased Bio-Techne
Briefly: Cell-free Tau K18 WT pre-formed fibril disaggregation assay (Thioflavin T). In kind it is biochemical. The following applies: 10 μM Tau PFFs, 30 μM compound, 94 hr, vs vehicle (Dunnett's test). How it is done:
Summary: Compounds 2,3,5-trimethyl-6-nonylcyclohexa-2,5-diene-1,4-dione (C9), 2,3,5-trimethyl-6-octylcyclohexa-2,5-diene-1,4-dione (C8), and 2,3,5-trimethyl-6-heptylcyclohexa-2,5-diene-1,4-dione (C7) were tested for their ability to disaggregate pre-formed fibrils (PFFs) of human wild-type Tau K18 fragment, as measured by the decrease in fluorescence intensity of the aggregate-binding fluorophore, Thioflavin T, over time.
Experimental Methods: Pre-formed fibrils (PFFs) of the human recombinant Tau K18 WT fragment were generated by incubating the Tau K18 monomer (Bio-Techne®) with sodium heparin in a 1:1 ratio in presence of excess (50×) tris(2-carboxyethyl)phosphine (TCEP) as the reducing agent in Dulbecco's phosphate-buffered saline (DPBS) buffer (pH 7.4). The mixture was incubated for 4 days at 37° C. without agitation to yield PFFs in 100 μM final concentration.
Cell-free Tau disaggregation assays were set up with 10 μM of Tau PFFs in the presence of 30 μM of compound (from 10 mM stocks in DMSO) or in 0.3% (v/v) DMSO as vehicle. All solutions were prepared in DPBS buffer (pH 7.4) with 0.03% (v/v) NaN3 and 5 μM Thioflavin T (ThT), prepared as a master mix before addition of the protein or compounds. A protein master mix was first prepared the day before the assay to pre-equilibrate the Tau PFFs at 10 μM at ambient temperature and atmosphere. The next day, the pre-mixed protein solution was separated into 4 tubes (1 per condition). […]
Tau PFFs solution+/−compound and background samples were then loaded into wells of an optically transparent 96-well plate with black walls, which was sealed with a LightCycler® 480 seal (Roche Life Science), incubated at 37° C. for 15 minutes to equilibrate and the data collection was initiated. A Tecan M1000 spectrometer was used to collect data points on ThT fluorescence (ex/em 450/490 nm) every 30 minutes without agitation.
Data Analysis and Results: The maximum fluorescence intensity unit (FIU) value of the vehicle-treated Tau samples was set to 100%, to which all other FIU values were normalized relatively. […]

For data set [2], the target named is T2, recombinant human αSynuclein (Homo sapiens, UniProt P37840).
T2 construct: purchased Proteos, Inc
Briefly: Cell-free αSynuclein aggregation assay (Thioflavin T). As to conditions: 200 μM αSynuclein, 100 μM compound, t=24 hours, one-way ANOVA with Tukey's test. In kind it is biochemical. As for the experimental part: Summary: The compound 2,3,5-trimethyl-6-nonylcyclohexa-2,5-diene-1,4-dione (“C9”), and its C8 (2,3,5-trimethyl-6-octylcyclohexa-2,5-diene-1,4-dione) and C7 (2,3,5-trimethyl-6-heptylcyclohexa-2,5-diene-1,4-dione) analogs were tested for their function as inhibitors of αSynuclein aggregation, as measured by the presence and extent of a lag phase in the kinetics of protein aggregation. Changes in the fluorescence intensity by the aggregate-binding fluorophore, Thioflavin T, were followed to report on the protein aggregation as a function of time.
Experimental Methods: Cell-free αSynuclein aggregation assays were set up with 200 μM of recombinant human αSynuclein (Proteos, Inc.) in the presence of 100 μM of compound (from 10 mM stock solutions in DMSO) or in 1% (v/v) DMSO as vehicle. All solutions were prepared in Dulbecco's phosphate-buffered saline (DPBS) buffer (pH 7.4) with 0.03% (v/v) NaN3 and 5 μM Thioflavin T (ThT), prepared as a master mix before addition of the protein or compounds. A protein master mix was then prepared and separated into 4 tubes (1 per condition). […]
Protein solution+/−compound and background samples were then loaded into wells of an optically transparent 96-well plate with black walls (Corning Costar), which was sealed with a LightCycler® 480 seal (Roche Life Science), incubated at 37° C. for 15 minutes to equilibrate, after which the data collection was started. A Tecan M1000 spectrometer was used to collect data points on ThT fluorescence (ex/em 450/490 nm) every 30 minutes. The plate was agitated by shaking in between fluorescence reads.
Data Analysis and Results: Fluorescence intensity data were collected on all the samples over time. The endpoint fluorescence intensity unit (FIU) value of the mean of vehicle-treated αSyn samples was set to 100%, and all other FIU values were normalized relative to it (see FIG. 1A). The end results were plotted as normalized ThT fluorescence (%) with respect to time.
Normalized ThT fluorescence values (% FIU) at t=24 hours were used to compare samples (see FIG. 1B). […]

The nature of data set [3]: Light sensitivity of C9 solutions. In kind it is physicochemical. The following applies: room light wavelengths <450 nm. From the text: The compounds of this invention can be prepared from readily available starting materials using general methods and procedures that will be apparent to one skilled in the art in view of the disclosure provided herein. It will be appreciated that where typical or preferred process conditions (i.e., reaction temperatures, times, mole ratios of reactants, solvents, pressures, etc.) are given, other process conditions can also be used unless otherwise stated. Optimum reaction conditions may vary with the particular reactants or solvent used, but such conditions can be determined by one skilled in the art by routine optimization procedures. […] If amber lighting is not available, then appropriate controls should be used to minimize solutions to light exposure e.g. aluminum foil wrapping, amber glassware
Test solutions on 1 g scale determined that 75-85% IPA/water gave good solubility (˜10:1 vol:wt), fine crystals that were filterable and solutions that could be heated and cooled to produce a predictable melt/crystallization. […] A hot filtration was required as a brown, material formed during crystallization when the solution was left exposed to room light for >1 h. This was only observed with the solution was exposed to light. Recovery was 92.7% of fine needles and UHPLC analysis of the supernatant was 91% a/a vs 99% for the solid indicating the supernatant was removing impurities. […]

T1 sequence (P10636 561-685 limits assumed): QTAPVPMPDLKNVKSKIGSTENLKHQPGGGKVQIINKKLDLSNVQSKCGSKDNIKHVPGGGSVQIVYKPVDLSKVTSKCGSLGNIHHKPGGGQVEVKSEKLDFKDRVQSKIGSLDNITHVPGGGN

Take `CCCCCCCCC1=C(C)C(=O)C(C)=C(C)C1=O` [Compound C8, 2,3,5-trimethyl-6-octylcyclohexa-2,5-diene-1,4-dione, reference compound]: the “reduction in Tau fibril content” value in data set [1] was “did not have a significant reduction”. Besides, in data set [2], the “inhibition of αSynuclein aggregation (normalized ThT fluorescence vs vehicle)” value is listed as “not statistically significant”.

Take `CCCCCCCCCC1=C(C)C(=O)C(C)=C(C)C1=O` [Compound C9, 2,3,5-trimethyl-6-nonylcyclohexa-2,5-diene-1,4-dione]: the “light sensitivity of solutions” value in data set [3] is “light sensitive”. Besides, the “reduction in Tau fibril content” value in data set [1] is on record as “significant reduction”. Besides, in data set [2], the “inhibition of αSynuclein aggregation (normalized ThT fluorescence vs vehicle)” value is “significant inhibition effect”.
